The results in this text go back to patent US11821042B2, “Targeting chromosomal instability and downstream cytosolic DNA signaling for cancer treatment” (Cornell University, priority 2017, dated 2023).

The assay deals with MDA-MB-231 cells. The assay is described as follows: In vitro invasion assay through collagen membrane (CytoSelect). It is filed as cell-based, human. To be noted: addition to MCAK (CIN-low) cells. How it is done:
For the invasion and migration/chemotaxis assays the CytoSelect cell invasion (CBA-110) and cell migration (CBA-100) kits, respectively, were used. Briefly, 3×10^5 cells were suspended in serum-free media and placed on top of the membrane. […] For the chemotaxis assay, we used a colorimetric approach (OD 560 nm) for quantification. For the scratch assay, cells were treated with mitomycin C (10 μgml^−1) for 1 hour when they reached >90% confluence and then placed in DMEM containing 1% FBS. Wounds were applied using p200 pipette tip and images of the wound were taken immediately and at subsequent regular intervals. ImageJ was used for quantification of wound surface area.

As to `Nc1nc2c(ncn2[C@@H]2O[C@@H]3COP(=O)(O)O[C@H]4[C@@H](O)[C@H](n5cnc6c(N)ncnc65)O[C@@H]4COP(=O)(O)O[C@@H]2[C@@H]3O)c(=O)[nH]1` [cGAMP, cyclic guanosine monophosphate-adenosine monophosphate], the “ability to migrate and invade through a collagen membrane” value is listed as “increased”.
